Data published in patent publication US11737999B2, “Amino acid compositions and methods for the treatment of post-acute sequelae of COVID-19” (AXCELLA HEALTH INC., priority 2021, dated 2023).

Columns and labels:
Procollagen Iα1 = Procollagen Iα1 secretion (ELISA) in primary human hepatic stellate cells stimulated with TGFβ1; assay type: cell-based; settings: for Procollagen lα1 Secretion (Fold Change of 1X), Mean: first donor; for Procollagen lα1 Secretion (Fold Change of 1X), Mean / Procollagen Iα1 Secretion, Mean: single amino acid
TNF-α = assay: LPS-induced TNF-α secretion in primary human monocyte-derived macrophages; settings: 0.15 ng/mL LPS
IL-6 [1] = assay: LPS-induced IL-6 secretion in primary human monocyte-derived macrophages; settings: LPS, baseline subtracted values
Col1a1 = Col1a1 gene expression (RT-qPCR) in primary human hepatic stellate cells stimulated with TGFβ1; assay type: cell-based; settings: for Col1a1 Fold Expression Relative to Control, Mean: single amino acid
IL-6 [2] = assay: IL-6 cytokine secretion in primary human hepatic stellate cells stimulated with TNFα; assay type: cell-based; settings: for Fold Change IL-6 Secretion Normalized Per Cell: Valine 234 μM (plasma level, reference)
MCP-1 = MCP-1 chemokine secretion in primary human hepatic stellate cells stimulated with TNFα; assay type: cell-based
MCP1/CCL2 = MCP1/CCL2 secretion by ELISA in primary human hepatocytes with FFA + TNFα; assay type: cell-based
[3] = hepatic stellate cells, three donors
[4] = Donor 2, Conc. 234 μM (baseline)
[5] = hepatic stellate cells, two donors

CC(C)[C@H](N)C(=O)O [Valine, L-Valine]
Procollagen lα1 Secretion (Fold Change of 1X), Mean (Procollagen Iα1; 4684 μM): 1.1203 fold
Procollagen lα1 Secretion (Fold Change of 1X), Mean (Procollagen Iα1; 11710 μM): 1.2069 fold
Procollagen lα1 Secretion (Fold Change of 1X), Mean (Procollagen Iα1; 23420 μM): 1.2139 fold
procollagen Iα1 secretion (summary in words) (Procollagen Iα1; [3]): significantly increased procollagen Iα1 secretion in only one of two donors
Procollagen Iα1 Secretion, Mean (Procollagen Iα1; second donor, Conc. 234 μM (baseline)): 1.0000 Fold Change of 1×
Procollagen Iα1 Secretion, Mean (Procollagen Iα1; second donor, Conc. 4684 μM): 1.2865 Fold Change of 1×
Procollagen Iα1 Secretion, Mean (Procollagen Iα1; second donor, Conc. 11710 μM): 1.2877 Fold Change of 1×
Procollagen Iα1 Secretion, Mean (Procollagen Iα1; second donor, Conc. 23420 μM): 1.3068 Fold Change of 1×
Procollagen Iα1 Secretion, Mean (Procollagen Iα1; third donor, Conc. 234 μM (baseline)): 1.0000 Fold Change of 1×
Procollagen Iα1 Secretion, Mean (Procollagen Iα1; third donor, Conc. 4684 μM): 1.0428 Fold Change of 1×
Procollagen Iα1 Secretion, Mean (Procollagen Iα1; third donor, Conc. 11710 μM): 1.0498 Fold Change of 1×
Procollagen Iα1 Secretion, Mean (Procollagen Iα1; third donor, Conc. 23420 μM): 1.1139 Fold Change of 1×
TNF-α Measurements Mean (baseline subtracted) (TNF-α; Donor 1, Conc. 4684 μM): −40.37
TNF-α Measurements Mean (baseline subtracted) (TNF-α; Donor 1, Conc. 11710 μM): −41.77
TNF-α Measurements Mean (baseline subtracted) (TNF-α; Donor 1, Conc. 23420 μM): −14.98
TNF-α Measurements Mean (baseline subtracted) (TNF-α; [4]): −4.7E−15
TNF-α Measurements Mean (baseline subtracted) (TNF-α; Donor 2, Conc. 4684 μM): −0.00221
TNF-α Measurements Mean (baseline subtracted) (TNF-α; Donor 2, Conc. 11710 μM): −0.835
TNF-α Measurements Mean (baseline subtracted) (TNF-α; Donor 2, Conc. 23420 μM): −1.251
TNF-α Measurements Mean (baseline subtracted) (TNF-α; Donor 3, Conc. 234 μM (baseline)): −2.4E−15
TNF-α Measurements Mean (baseline subtracted) (TNF-α; Donor 3, Conc. 4684 μM): 0.126
TNF-α Measurements Mean (baseline subtracted) (TNF-α; Donor 3, Conc. 11710 μM): −2.599
TNF-α Measurements Mean (baseline subtracted) (TNF-α; Donor 3, Conc. 23420 μM): 3.688
IL-6 Measurements, Mean (IL-6 [1]; Donor 1, Conc. 234 μM (baseline)): 0
IL-6 Measurements, Mean (IL-6 [1]; [4]): −4.7E−15
IL-6 Measurements, Mean (IL-6 [1]; Donor 2, Conc. 4684 μM): −4.528
IL-6 Measurements, Mean (IL-6 [1]; Donor 2, Conc. 11710 μM): −1.196
IL-6 Measurements, Mean (IL-6 [1]; Donor 2, Conc. 23420 μM): 4.396
Col1a1 Fold Expression Relative to Control, Mean (Col1a1; first donor, 234 μM (baseline)): 1.00 fold
Col1a1 Fold Expression Relative to Control, Mean (Col1a1; first donor, 23420 μM): 1.00 fold
Col1a1 gene expression (summary in words) (Col1a1; [3]): did not significantly change Col1a1 gene expression in any donor
Col1a1 Fold Expression Relative to Control, Mean (Col1a1; second donor (Table 27), 234 μM (baseline)): 1.00 fold
Col1a1 Fold Expression Relative to Control, Mean (Col1a1; second donor (Table 27), 4684 μM): 1.05 fold
Col1a1 Fold Expression Relative to Control, Mean (Col1a1; second donor (Table 27), 11710 μM): 0.98 fold
Col1a1 Fold Expression Relative to Control, Mean (Col1a1; second donor (Table 27), 23420 μM): 1.05 fold
Col1a1 Fold Expression Relative to Control, Mean (Col1a1; second donor (Table 29), 4684 μM): 1.22 fold
Col1a1 Fold Expression Relative to Control, Mean (Col1a1; second donor (Table 29), 23420 μM): 1.13 fold
Fold Change IL-6 Secretion Normalized Per Cell (IL-6 [2]; donor 1): 1.0000 fold change
Fold Change IL-6 Secretion Normalized Per Cell (IL-6 [2]; donor 2): 1.0000 fold change
IL-6 secretion (summary in words) (IL-6 [2]; [5]): no significant effect on IL-6 secretion
Fold Change MCP1 Secretion Normalized Per Cell, Mean (MCP-1; donor 3, Conc. 234 μM): 1.0000 Fold Change
Fold Change MCP1 Secretion Normalized Per Cell (MCP-1; donor 4, Valine 234 μM (plasma level, reference)): 1.0000 fold change
MCP-1 secretion (summary in words) (MCP-1; [5]): no significant impact on MCP-1 secretion
MCP1 expression relative to Control, Mean (MCP1/CCL2; Donor 1, Conc. 234 μM): −2.4E−15
MCP1 expression relative to Control, Mean (MCP1/CCL2; Donor 1, Conc. 4684 μM): 23.6867
MCP1 expression relative to Control, Mean (MCP1/CCL2; Donor 1, Conc. 11710 μM): 77.73
MCP1 expression relative to Control, Mean (MCP1/CCL2; Donor 1, Conc. 23420 μM): 14.17
MCP1 expression relative to Control, Mean (MCP1/CCL2; Donor 2, Conc. 234 μM): −1.4E−14
MCP1 expression relative to Control, Mean (MCP1/CCL2; Donor 2, Conc. 4684 μM): 10.79
MCP1 expression relative to Control, Mean (MCP1/CCL2; Donor 2, Conc. 11710 μM): 38.25
MCP1 expression relative to Control, Mean (MCP1/CCL2; Donor 2, Conc. 23420 μM): −30.7921
MCP1/CCL2 secretion (summary in words) (MCP1/CCL2; primary human hepatocytes, two healthy donors): did not have an effect on MCP1/CCL2 secretion
